Assay results from patent publication US20140336218A1, “ARFORMOTEROL AND TIOTROPIUM COMPOSITIONS AND METHODS FOR USE” (priority 2008, published 2014).

What was measured:
[1] = test system: COPD patients; experiment: Inspiratory capacity in 2-week clinical trial; format: in vivo, human; details: for Mean (SD) inspiratory capacity improvement from baseline: 2-hours post-dosing; for Difference in trough FEV1 between combined therapy and mono-therapies, LS mean / Change in trough inspiratory capacity, mean (SD): ITT; for Difference in trough FEV1 between combined therapy and mono-therapies, LS mean / Change in trough inspiratory capacity, mean (SD) / Difference between combined therapy and mono-therapies in change in inspiratory capacity, LS mean: week 2; for Difference in trough FEV1 between combined therapy and mono-therapies, LS mean: printed below the trough inspiratory capacity line, combined therapy versus the mono-therapy; for Change in trough inspiratory capacity, mean (SD): trough = 24 hour time point after morning dose; for Difference between combined therapy and mono-therapies in change in inspiratory capacity, LS mean: combined versus the mono-therapy; for Change in Inspiratory Capacity, mean (SD): week 2 from study baseline
Procedure: (§1) This was a 2-week, prospective, multi-center (34 sites), randomized, modified blind, double dummy, parallel group study designed to evaluate the efficacy and safety of the combination of arformoterol 15 μg BID and tiotropium 18 μg QD (dosed sequentially) versus the individual mono-therapies in the treatment of COPD patients. The study was conducted according to the principles established by the Declaration of Helsinki (see, e.g., World Medical Association Declaration of Helsinki. Recommendations guiding physicians in biomedical research involving human subjects. JAMA 1997; 277:925-926.). Appropriate Institutional Review boards approved the protocol and written informed consent was obtained from the patients.
(§2) Eligible patients were randomized to receive one of three treatments for 14 days: nebulized arformoterol 15 μg (Brovana®, Sepracor Inc., Marlborough, Mass.) BID and placebo DPI QD, nebulized placebo BID and tiotropium 18 μg (Spriva® HandiHaler® Boehringer Ingelheim, Ridgefield, Conn.) DPI QD, or nebulized arformoterol 15 μg BID and tiotropium 18 μg DPI QD. The nebulized drug was administered first using the PARI LC Plus® nebulizer driven by the Duraneb 3000® compressor (Pari: Pari Respiratory Equipment Inc., Midlothian, Va.) at a flow rate of 3.3 L/minute followed (within 5 minutes) by the DPI administration (HandiHaler®). The tiotropium and placebo DPI capsules were identical in size and shape but differed in color.
At week 0 and week 2, medical event calendars and blood samples were collected and vital signs and heart measurements analyzed. At week 0, spirometry was performed pre-morning dose, immediately (within 5 minutes) and at 30 minutes, 1, 2, 4, 6, 8, 10, and 12 hours post-first dose. After the 12-hour pulmonary function test patients self-administered the evening dose of study medication. At week 2, serial spirometry was also performed as at week 0, as well as immediately (within 5 minutes) following the evening dose (administered 12 hours after the morning dose) and 12.5, 13, 14, 16, 23, and 24 hours post-morning dose. Inspiratory capacity was evaluated pre-dose and at 2 hours post-morning dose at week 0, and pre-dose and 2, 11, 14, and 24 hours post-morning dose at week 2. All inspiratory capacity measurements were the mean of acceptable inspiratory capacity maneuvers, two of which were reproducible. Prior to an inspiratory capacity maneuver a patient had to have a stable expiratory level for about 10 breaths. Once the stable level was achieved, at the end of exhalation of a normal breath the patient was asked to make a steady and full inhalation at normal inspiratory flow rates until the lungs were completely full, and then to exhale at a normal rate.
All pulmonary function values used were the highest among the three acceptable maneuvers. The Investigator ensured that all spirometry was performed in accordance with the American Thoracic Society/European Respiratory Society Standardisation of Spirometry guidelines (see, e.g., Miller M R, Hankinson J, Brusasco V, Burgos F, Casaburi R, Coates A, et al. Standardisation of spirometry. Eur Respir J 2005; 26:319-338; herein incorporated in its entirety by reference). Centralized over-reading of spirometry and inspiratory capacity pulmonary function measures were used for quality control.
The study was designed to detect a mean treatment difference of time normalized FEV1AUC over 24 hours (FEV1AUC0-24) (the primary endpoint) of 0.075 L with a standard deviation of 0.016 L when comparing combined therapy with mono-therapy, using a two-sided 5% significance level, following 2-weeks of dosing for the primary comparison with 80% power. All efficacy analyses were performed on the ITT population. All statistical testing was 2-tailed and conducted at the 5% significance level, unless otherwise indicated.

[2] = test system: COPD patients; experiment: Transition Dyspnea Index (TDI) in 2-week clinical trial; format: in vivo, human; details: for Patients with change ≧1 unit (TDI), n (%) / TDI, mean (SD) / Patients with change of ≧1 unit (TDI), n (%) / Difference between combined therapy and mono-therapies in TDI, LS mean / Patients with change of ≧1 unit (TDI), %: week 2; for Patients with change of ≧1 unit (TDI), %: cells print n (%); for improvement in TDI: patients with <50% predicted FEV1 at baseline
Procedure: as §1, §2
At screening, the Baseline Dyspnea Index (BDI) (see, e.g., Mahler D A, Weinberg D H, Wells C K, Feinstein A R. The measurement of dyspnea. Contents, interobserver agreement, and physiologic correlates of two new clinical indexes. Chest 1984; 85:751-758; herein incorporated in its entirety by reference) was assessed prior to the first clinic dose, and at week 2 the Transition Dyspnea Index (see id.) was evaluated before first morning dose. The baseline focal score (range 0 to 12) and the transition focal score (range −9 to 9) were the sums of the functional impairment, magnitude of task, and magnitude of effort scores (see id.). Higher scores indicate less dyspnea at baseline (BDI) or greater improvement in dyspnea from baseline (TDI).
The study was designed to detect a mean treatment difference of time normalized FEV1AUC over 24 hours (FEV1AUC0-24) (the primary endpoint) of 0.075 L with a standard deviation of 0.016 L when comparing combined therapy with mono-therapy, using a two-sided 5% significance level, following 2-weeks of dosing for the primary comparison with 80% power. All efficacy analyses were performed on the ITT population. All statistical testing was 2-tailed and conducted at the 5% significance level, unless otherwise indicated. […] To control for multiple comparisons, statistical tests of mean treatment group differences were considered significant if the overall treatment effect in the model was statistically significant at the 5% level. Pulmonary function severity subgroup analysis was performed post hoc by stratifying patients according to the GOLD COPD guidelines (see, e.g., Pauwels R A, Buist A S, Calverley P M, Jenkins C R, Hurd S S. Global strategy for the diagnosis, management, and prevention of chronic obstructive pulmonary disease. NHLBI/WHO Global Initiative for Chronic Obstructive Lung Disease (GOLD) Workshop summary. Am J Respir Crit Care Med 2001; 163:1256-1276;; herein incorporated in its entirety by reference) (<30%, ≧30% to <50%, and ≧50%, respectively). Pairwise comparisons between treatment groups were performed using least square means (LS means) from the linear model with the study baseline (or predose where applicable) as a covariate and the treatment group as a fixed effect.

[3] = baseline percent predicted FEV1 <50%
[4] = baseline percent predicted FEV1 ≧50%
[5] = ITT, transition focal score range −9 to 9
[6] = baseline percent predicted FEV1 <50%, combined versus the mono-therapy
[7] = baseline percent predicted FEV1 ≧50%, combined versus the mono-therapy

Compound	Mean (SD) inspiratory capacity improvement from baseline [1] [L]	Difference in trough FEV1 between combined therapy and mono-therapies, LS mean [1] [L]	Change in trough inspiratory capacity, mean (SD) [1]	Difference between combined therapy and mono-therapies in change in inspiratory capacity, LS mean [1, 3] [L]	Change in Inspiratory Capacity, mean (SD) [1, 3]	Difference between combined therapy and mono-therapies in change in inspiratory capacity, LS mean [1, 4] [L]	Change in Inspiratory Capacity, mean (SD) [1, 4]	Patients with change ≧1 unit (TDI), n (%) ([2]; ITT)	TDI, mean (SD) [2, 5]	Patients with change of ≧1 unit (TDI), n (%) [2, 3]	TDI, mean (SD) [2, 3]	Difference between combined therapy and mono-therapies in TDI, LS mean [2, 6]	TDI, mean (SD) [2, 4]	Patients with change of ≧1 unit (TDI), % [2, 4]	Difference between combined therapy and mono-therapies in TDI, LS mean [2, 7]	improvement in TDI [2] [units]	Difference between combined therapy and mono-therapies in TDI, LS mean ([2]; ITT, combined therapy versus the mono-therapy) [L]
COc1ccc(C[C@@H](C)NC[C@H](O)c2ccc(O)c(NC=O)c2)cc1 [Arformoterol]	0.20	0.07	0.07 (0.30) L	0.08	0.12 (0.31) L	0.06	−0.01 (0.27) L	50 (66.7) n (%)	2.3 (2.4)	34 (72.3) n (%)	2.3 (2.3)	1.3	2.3 (2.6)	17 (57.1) %	0.2	2.3	–
C[N+]1(C)[C@@H]2C[C@@H](OC(=O)C(O)(c3cccs3)c3cccs3)C[C@H]1[C@@H]1O[C@@H]12 [Tiotropium]	0.19	0.12	0.02 (0.29) L	0.17	0.02 (0.27) L	0.02	0.04 (0.33) L	44 (57.1) n (%)	1.8 (2.8)	25 (52.1) n (%)	1.6 (3.0)	2.0	2.3 (2.5)	19 (67.9) %	0.3	1.6	1.3
